Laboratory results: patent US12662513B2, “Peptidic modulators of quorum sensing in Staphylococcus epidermidis” (priority 2016, dated 2026)
“Also recorded” adds a separate entry of the source. Bridge positions count the residues as written; N and C are the ends. Ends that are not written are not given here. Peptide text beside a SMILES is read from it.

Experiments:
AgrC-I receptor = AgrC-I receptor (Staphylococcus epidermidis, UniProt Q5HMY3); experiment: cell-based; type: cell-based, S. epidermidis; conditions: for Mode/strength of activity toward AgrC-I (Group I), in words: dose response; for Activity toward Group-I at lower concentration, in words: single concentration 100 nM (or 1 μM)
Experimental: The initial set of 14 analogs (listed in Table 1) was synthesized using solid-phase peptide chemistry and purified to homogeneity using previously established HPLC methods (59). Each analog was tested for its ability to modulate the activity of the AgrC-I receptor using a wild-type S. epidermidis Group-I fluorescence reporter strain. This strain contained a reporter plasmid encoding a gfp gene fused to the P3 promoter found upstream of RNAIII (36).
(§1) Biological reagents, strains, and general methods. All standard reagents were purchased from commercial sources and used according to enclosed instructions. The S. epidermidis fluorescence reporter strains AH3408 (Group-I), AH3567 (Group-II), and AH3409 (Group-III) were cultured in Tryptic Soy Broth (TSB, from Sigma) augmented with 10 μg/mL of erythromycin (36). The S. epidermidis wild-type strain RP62A (Group-I) was cultured in TSB (from Sigma or EMD Millipore). The S. aureus fluorescence reporter strains AH1677 (Group-I), AH430 (Group-II), AH1747 (Group-III), and AH1872 (Group-IV) were cultured in Brain Heart Infusion (BHI, from Teknova) augmented with 10 μg/mL of chloramphenicol (65). All cultures were grown at 37° C. with shaking (200 rpm) unless noted otherwise. Absorbance and fluorescence measurements were obtained using a Biotek Synergy 2 microplate reader operating Gen5 data analysis software. IC50 values and EC50 values were determined from sigmoidal curve fits using GraphPad Prism software (v. 6.0).
(§2) Fluorescence reporter assay protocol. […] Each peptide solution was tested in triplicate. […] Plates were then incubated at 37° C. for 24 h. Fluorescence (EX 500 nm/EM 540 nm) and OD600 of each well was measured using a plate reader, and the fluorescence values were normalized to the DMSO control.
(§3) The remaining steps of the fluorescence assay were the same as above.

AgrC-III = conditions: for Activity toward Group-III at lower concentration, in words: single concentration 100 nM (or 1 μM)
From the text: (§4) However, the biological significance of this agr interference remains unclear, although it has been hypothesized to potentially play a role in competition between different groups in a mixed bacteria milieu (18). […] To this end, the AIP analogs discussed above were screened in GFP reporter strains of Groups-II and -III S. epidermidis to complement the Group-I S. epidermidis data in Tables 1 and 2 (see Methods; FIGS. 7A and 7B).
as §1, §2, §3

AgrC-II = conditions: for Activity toward Group-II at lower concentration, in words: single concentration 100 nM (or 1 μM)
From the text: as §4, §1, §2, §3

[1] = system: S. epidermidis Group-I RP62A biofilm; conditions: 10 μM, 24 h
Experimental: as §1
Crystal violet biofilm assay protocol. […] Each solution was tested in triplicate.

[2] = system: AgrC I-IV receptors in S. aureus Groups-I-IV; experiment: Fluorescence (GFP) reporter strain assays, S. aureus Groups-I-IV; type: cell-based; conditions: 100 nM unless noted
From the text: (§5) Similar to the cross-group inhibition observed between different agr groups of the same species, this cross-species inhibitory effect has no known biological role, but is hypothesized to provide a competitive advantage on a host (18, 46). Thus, AIP analogs described herein were examined to identify potential species-specific inhibitors that target either S. epidermidis Group-I or S. aureus Groups-I-IV.
as §1, with “The S. epidermidis wild-type strain RP62A (Group-I) was cultured in TSB (from Sigma or EMD Millipore).” left out, “All cultures were grown at 37° C. with shaking (200 rpm) unless noted otherwise.” left out
(§6) Fluorescence reporter assay protocol. […]
as §3

[3] = system: agr system of S. aureus Group-III; experiment: Fluorescence (GFP) reporter strain assay, S. aureus Group-III; type: cell-based; conditions: 100 nM unless noted
From the text: as §5
as §1, with “The S. epidermidis wild-type strain RP62A (Group-I) was cultured in TSB (from Sigma or EMD Millipore).” left out, “All cultures were grown at 37° C. with shaking (200 rpm) unless noted otherwise.” left out
as §6, §3

[4] = dose response antagonism assay, FIGS. 3A/3B

AgrC-I receptor, sequence (Q5HMY3 entry or part of it): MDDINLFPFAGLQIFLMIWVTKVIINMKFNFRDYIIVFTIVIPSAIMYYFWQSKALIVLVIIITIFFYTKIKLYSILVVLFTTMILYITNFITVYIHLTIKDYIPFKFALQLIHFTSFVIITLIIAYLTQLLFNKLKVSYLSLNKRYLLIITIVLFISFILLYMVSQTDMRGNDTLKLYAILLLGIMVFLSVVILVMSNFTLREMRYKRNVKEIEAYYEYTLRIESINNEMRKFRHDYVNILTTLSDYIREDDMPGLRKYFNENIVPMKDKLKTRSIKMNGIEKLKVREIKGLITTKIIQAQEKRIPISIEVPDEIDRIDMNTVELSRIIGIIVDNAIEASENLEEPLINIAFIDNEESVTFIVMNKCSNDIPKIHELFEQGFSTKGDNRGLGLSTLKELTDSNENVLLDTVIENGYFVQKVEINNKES

## C[C@H](N)C(=O)N[C@@H](CO)C(=O)N[C@@H](C)C(=O)N[C@H]1CSC(=O)[C@H](Cc2ccccc2)NC(=O)[C@H](Cc2ccc(O)cc2)NC(=O)[C@H](C)NC(=O)[C@H](CO)NC1=O [AIP-I D1AS6AV3AA5S, A-S-A-(C-S-A-Y-F)] (H-ASACSAYF; thioester 4-C)
AgrC-I receptor
  Mode/strength of activity toward AgrC-I (Group I), in words: analogous potency as the parent triple mutant
AgrC-III; [4]
  IC50 against AgrC-III, in words: subnanomolar to low nanomolar range
AgrC-III
  Activity toward Group-III at lower concentration, in words: strongly inhibited
AgrC-II; [4]
  IC50 against AgrC-II, in words: subnanomolar to low nanomolar range
AgrC-II
  Activity toward Group-II at lower concentration, in words: strongly inhibited
[1]
  Effect on biofilm growth, in words: did not increase biofilm growth

## CC(C)C[C@@H]1NC(=O)[C@H](Cc2ccc(O)cc2)NC(=O)[C@H](CC(N)=O)NC(=O)[C@H](CO)NC(=O)[C@@H](NC(=O)[C@@H]2CCCN2C(=O)[C@H](CC(N)=O)NC(=O)[C@@H](N)Cc2ccc(O)cc2)CSC1=O [AIP-II 8aa, Y-N-P-(C-S-N-Y-L)] (H-YNPCSNYL; thioester 4-C)
AgrC-I receptor
  Mode/strength of activity toward AgrC-I (Group I), in words: potency similar to the parent AIP-II
  Activity toward Group-I at lower concentration, in words: remained active; also recorded: selectively inhibited
AgrC-I receptor; read-out: Inhibition of AgrC-I (inhibiting to ~%)
  inhibition at 10 µM: ~75%
AgrC-III; single concentration 10 μM
  Activity against Group-III, in words: inactive
AgrC-II
  Activity toward Group-II at lower concentration, in words: inhibitory activity against Group-II decreased
[2]
  Effect on agr activity in S. aureus Groups-I-IV, in words: without significantly affecting agr activity

## CC(C)C[C@@H]1NC(=O)[C@H](Cc2ccc(O)cc2)NC(=O)[C@H](CC(N)=O)NC(=O)[C@H](CO)NC(=O)[C@@H](NC(=O)[C@@H]2CCCN2C(=O)[C@H](CC(N)=O)NC(=O)[C@H](Cc2ccc(O)cc2)NC(=O)[C@@H](N)CCCCN)CSC1=O [AIP-II 9aa, K-Y-N-P-(C-S-N-Y-L)] (H-KYNPCSNYL; thioester 5-C)
AgrC-I receptor
  Activity toward Group-I at lower concentration, in words: inhibited; also recorded: largely an inhibitor specific to S. epidermidis Group-I
AgrC-III
  Activity toward Group-III at lower concentration, in words: inactive
AgrC-II
  Activity toward Group-II at lower concentration, in words: highly active agonist
[3]
  Inhibitory activity in S. aureus Group-III, in words: weak inhibitory activity

## I-N-(C-A-F-L-L) (INCAFLL; bridge 3-C; also: thiolactone between Cys3 side chain and C-terminus) [S. aureus AIP-III D4A, reference compound]
AgrC-I receptor; activation dose response in the presence of 50 nM S. epidermidis AIP-II
  EC50 in AgrC-I: Inactive^c
AgrC-I receptor; antagonism dose response, peptide alone, Group-I GFP reporter strain, 24 h
  IC50 in AgrC-I: Inactive^c
AgrC-I receptor
  Mode/strength of activity toward AgrC-I (Group I), in words: largely inactive
  Activity toward Group-I at lower concentration, in words: inactive
AgrC-II
  Activity toward Group-II at lower concentration, in words: inhibiting exclusively Group-II
[2]
  Effect on agr activity in S. aureus Groups-I-IV, in words: potent pan-group inhibitor
